For the data set, the system named is HEK293 cells. Briefly: Quantification of LTD4 degradation in IP1 assay (UPLC/MS). In kind it is in vitro ADME. The following applies: 10 µM LTD4 over HEK293 monolayer, 30 min, 37 °C, with or without L-Cys. The protocol: HEK293 cells were seeded in a 6-well plate at a density of 300,000 cells per well. Forty-eight hours after seeding, medium was removed, and cells were washed twice with PBS. […] After incubation, supernatant was filtered through a 0.22 µm PVDF filter and an internal standard was added before injection on UPLC/MS (Waters UPLC system coupled with a SQ detector 2 and a PDA eλ detector, using an Acquity UPLC BEH C18 column, 2.1 mm × 50 mm, 1.7 μm spherical size). UPLC chromatograms were recorded using the following gradient: water + 0.1% TFA and acetonitrile (0 → 0.2 min, 5% acetonitrile; 0.2 → 1.5 min, 5% → 95%; 1.5 → 1.8 min, 95%; 1.8 → 2.0 min, 95% → 5%; and 2.0 → 2.5 min, 5%). Quantification was done by determining the area under the curve (AUC) ratio of the tested compound over AUC of the internal standard. […] Quantification results are expressed as mean ± s.e.m. of three independent experiments.

Entries after “also recorded” stand apart in the source; their conditions may differ.

The values that follow come from article PMC6897958, “Structural basis of ligand selectivity and disease mutations in cysteinyl leukotriene receptors” (Nature Communications, 2019).

In the case of `CCCCC/C=C\C\C=C/C=C/C=C/[C@@H](SC[C@H](N)C(=O)NCC(=O)O)[C@@H](O)CCCC(=O)O` [LTD4], the “LTD4 conversion/degradation in functional assay” value was “No LTD4 conversion was found; also recorded: No LTD4 degradation was observed”.
